Reference: patent US5166214A, “Use of imidazoles for the treatment of atherosclerosis” (priority 1990, dated 1992)
pIC50: −log10 of the molar value. Like-named read-outs stand apart in the source and are kept apart here.

Tests used:
[1] = system: murine macrophage-like cell line J774.A1; test: Inhibition of cholesterol esterification in mammalian cells (macrophage assay); assay type: cell-based; conditions: J774.A1 macrophages loaded with ac-LDL, 14C-oleic acid; read-out: Cholesterol Esterification IC50
Procedure: B. Assay of the Inhibition of Cholesterol Esterification in Mammalian Cells
The esterification of cholesterol was determined in the murine macrophage-like cell line J774.A1. Cells were seeded in 35 mm wells at a density of 300,000 cells per well in 2 mls of Dulbecco's Eagle Medium (DMEM) supplemented with 10% fetal bovine serum (FBS). Cells were incubated at 37° C. in an atmosphere of 5% CO2 and 93% humidity. After 24 hours the media was changed to 0.68 mls 10% FBS-DMEM containing 34 μg of acetylated human low density lipoprotein (ac-LDL) to increase the intracellular concentration of cholesterol and promote esterification. At 41 hours, various inhibitors were added to the cells in DMSO (10 μl/ml maximum). At 43 hours, the cells were pulsed with 0.1 mM ^14 C-oleic acid (10,000 dpm/nmol) complexed with BSA (bovine serum albumin) to follow cholesterol ester formation. The experiment was terminated at 45 hours by washing the monolayers 3 times with 3 ml of Tris-buffered saline at 4° C. The lipids were extracted by incubating the monolayers with 1.5 ml of hexane:isopropanol (3:2, v/v) for 30 min. under gentle agitation. During this period, 10,000 dpm 3H-cholesteryl linoleate and 10 μg of cholesteryl oleate were added as an internal standard and carrier respectively. The organic solvent was removed and the cells were washed with an additional 1.0 ml of hexane: isopropanol which was combined with the original extract. The cells were allowed to dry overnight, digested with 1.5 ml of 0.2N sodium hydroxide for 1 hour and an aliquot of the solubilized protein used for protein determination using the Lowry method. The organic extract was taken to dryness, the residue resuspended in 100 μl of chloroform and the lipids separated on silica gel impregnated glass fiber plates using a hexane:diethylether:acetic acid (170:30:1, v/v/v) solvent system. Individual lipids were visualized with iodine and the cholesteryl ester spot cut out and transferred to scintillation vials to determine the amount of radioactivity. The conversion of oleic acid to cholesteryl ester in the control averaged 0.54 […] and was increased upon the addition of ac-LDL to about 10.69±0.69 […]. […] It should be noted that many of the intermediates had inhibitory activity in the in vitro ACAT assay and in the macrophage assay.

[2] = target: T1, Acyl-CoA: Cholesterol Acyltransferase (ACAT) (Rattus norvegicus, UniProt Q7TQM4); test: Inhibition of acyl-CoA: cholesterol acyltransferase (ACAT) in hepatic microsomes (in vitro); assay type: biochemical, rat (male Sprague Dawley)
T1 construct: Microsomes were obtained by differential centrifugation; from tissue; host or cells: liver microsomes of male Sprague Dawley rats
T1 sequence (Q7TQM4 1-524): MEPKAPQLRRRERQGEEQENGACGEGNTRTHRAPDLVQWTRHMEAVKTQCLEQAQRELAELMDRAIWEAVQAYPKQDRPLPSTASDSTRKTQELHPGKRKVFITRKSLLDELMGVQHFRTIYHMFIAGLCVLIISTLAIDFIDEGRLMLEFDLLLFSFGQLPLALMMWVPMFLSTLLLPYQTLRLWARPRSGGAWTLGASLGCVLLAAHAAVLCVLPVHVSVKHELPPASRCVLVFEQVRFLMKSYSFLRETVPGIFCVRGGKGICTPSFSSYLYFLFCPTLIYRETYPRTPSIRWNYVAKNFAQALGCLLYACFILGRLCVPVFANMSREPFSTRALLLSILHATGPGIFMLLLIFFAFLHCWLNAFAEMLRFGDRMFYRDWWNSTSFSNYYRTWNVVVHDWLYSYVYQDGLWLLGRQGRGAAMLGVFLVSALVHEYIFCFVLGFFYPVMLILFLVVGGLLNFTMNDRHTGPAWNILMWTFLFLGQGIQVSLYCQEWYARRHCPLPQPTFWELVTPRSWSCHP
Procedure: A. Assay of the Inhibition of Acyl-CoA: Cholesterol Acyltransferase (ACAT) in Hepatic Microsomes
The ability of the compounds to inhibit ACAT, the enzyme responsible for the intracellular synthesis of cholesteryl esters, was tested as follows. Male Sprague Dawley rats weighing 150-300 g, were fed rat chow ad libitum. The animals were fasted for twenty-four hours prior to being sacrificed by decapitation. The livers were perfused in situ with 50 ml of cold 0.25M sucrose, excised, and homogenized in three volumes of 0.1M phosphate buffer, pH 7.4, that contained 0.5 mM EDTA (ethylenediaminetetraacetic acid), 1.0 mM glutathione, 0.25M sucrose and […]. Microsomes were obtained by differential centrifugation; the supernatant from an initial spin at 15,000×g for 15 minutes was centrifuged at 105,000×g for 1 hour to pellet the microsomes. The microsomes were suspended in homogenization buffer, reisolated by centrifugation, and stored at -70° C. Microsomes were used within one month of preparation.
The control assay in a final volume of 200 μl consisted of 200 μg of microsomal protein, 75 μM ^14 C-oleoyl-CoA (10,000 dpm/nmol) in 0.1M phosphate, pH 7.4, that contained 1 mM glutathione. Compounds were added in 5 μl of DMSO (dimethyl sulfoxide) and additional controls were run with DMSO only. All components, except the oleoyl-CoA, were preincubated for 15 min. at 37° C. prior to the initiation of the reaction by the addition of oleoyl-CoA. The assay was terminated after 10 min by the addition of 4 ml of chloroform:methanol (2:1, v/v). 20,000 dpm of ^3 H-cholesteryl oleate and 10 μg of unlabeled cholesteryl oleate and oleic acid were added as an internal standard and carriers, respectively. After allowing 10 min. for lipid extraction, the samples were centrifuged at 1,000×g for 10 min. to separate the solvent layers. The chloroform layer containing the neutral lipids was spotted onto a Baker SI250-Pa silica gel TLC plate and the plate developed using a hexane: diethyl ether: acetic acid (170:30:1 v/v/v) mobile phase. The lipids were visualized by their interaction with iodine vapor and the cholesteryl ester spot was scraped into a scintillation vial and counted.

[3] = rat hepatic microsomes, 75 μM 14C-oleoyl-CoA, pH 7.4, 37° C., read-out: In Vitro ACAT IC50

Row | SMILES | pIC50 [1] | pIC50 [2, 3] | pIC50 ([2]; In Vitro ACAT IC50) | pIC50 ([2]; In Vitro ACAT IC50, rat hepatic microsomes, 75 μM 14C-oleoyl-CoA, pH 7.4, 37° C.)
1 | CCCCCCCN(CCCCCSc1nc(-c2ccccc2)c(-c2ccccc2)[nH]1)C(=O)Nc1ccccc1 [Example 2, N-[5-(4,5-diphenyl-1H-imidazol-2-ylthio)pentyl]-N-heptyl-N'-phenylurea] | 6.10 | 8.52 |  | 
2 | CCCCN(CCCCCCCCSc1nc(-c2ccccc2)c(-c2ccccc2)[nH]1)C(=O)Nc1ccc(F)cc1F [Example 4, N-butyl-N'-(2,4-difluorophenyl)-N-[8-(4,5-diphenyl-1H-imidazol-2-ylthio)octyl]urea] | 5.34 | 7.22 |  | 
3 | CCCCCCCN(CCCCCSc1nc(-c2ccccc2)c(-c2ccccc2)[nH]1)C(=O)Nc1ccc(OC)cc1OC [Example 5, N'-(2,4-dimethoxyphenyl)-N-[5-(4,5-diphenyl-1H-imidazol-2-ylthio)pentyl]-N-heptylurea] | 5.60 | 7.92 |  | 
4 | CCCCCCCN(CCCCCSc1nc(-c2ccccc2)c(-c2ccccc2)[nH]1)C(=O)NC [Example 7, N-[5-(4,5-diphenyl-1H-imidazol-2-ylthio)pentyl]-N-heptyl-N'-methylurea] | 5.12 | 7.39 |  | 
5 | CCCN(CCSc1nc(-c2ccccc2)c(-c2ccccc2)[nH]1)C(=O)Nc1ccc(F)cc1F [Example 9, N'-(2.4-difluorophenyl)-N[-2-(4,5-diphenyl-1H-imidazol-2-ylthio)ethyl]-N-propylurea] | 4.95 | 6.03 |  | 
6 | CCCCCCCN(CCCCCSc1nc(-c2ccccc2)c(-c2ccccc2)n1-c1ccccc1)C(=O)Nc1ccc(F)cc1F [Example 20] | 4.26 | 7.70 |  | 
7 | CCCCCCCN(CCCCCSc1nc(-c2ccccc2)c(-c2ccccc2)[nH]1)C(=O)Nc1cccc(F)c1 [Example 53, N-[5-(4,5-diphenyl-1H-imidazol-2-ylthio)pentyl]-N'-(3-fluorophenyl)-N-heptylurea] | 6.40 | 7.77 |  | 
8 | CCCCCCCN(CCCCCSc1nc(-c2ccccc2)c(-c2ccccc2)[nH]1)C(=O)Nc1c(Cl)cccc1Cl [Example 64, N'-(2,6-dichlorophenyl)-N-[5-(4,5-diphenyl-1H-imidazol-2-ylthio)pentyl]-N-heptylurea] | 6.22 | 7.52 |  | 
9 | CCCCCCCN(CCCCCSc1nc(-c2ccccc2)c(-c2ccccc2)[nH]1)C(=O)Nc1ccc(C#N)cc1 [Example 85, N'-(4-cyanophenyl)-N-[5-(4,5-diphenyl-1H-imidazol-2-ylthio)pentyl]-N-heptylurea] | 5.51 |  | 7.22 | 
10 | CCCCCCCCNC(=O)N(CCCCCCC)CCCCCSc1nc(-c2ccccc2)c(-c2ccccc2)[nH]1 [Example 97, N-[5-(4,5-diphenyl-1H-imidazol-2-ylthio)pentyl]-N-heptyl-N'-octylurea] | 6.15 | 7.60 |  | 
11 | CCCCCCCN(CCCCCSc1nc(-c2ccccn2)c(-c2ccccn2)[nH]1)C(=O)Nc1ccc(F)cc1F [Example 107, N-[5-[4,5-bis(2-pyridinyl)-1H-imidazol-2-ylthio]pentyl]-N'-(2,4-difluorophenyl)-N-heptylurea] | 5.64 | 6.00 |  | 
12 | CCCCCCCN(CCCCCSc1nc(-c2cccs2)c(-c2cccs2)[nH]1)C(=O)Nc1ccc(F)cc1F [Example 110, N-[5-[4,5-bis(2-thienyl)-1H-imidazol-2-ylthio]pentyl]-N'-(2,4-difluorophenyl)-N-heptylurea] | 6.05 | 7.22 |  | 
13 | CCCCCCCN(CCCCCSc1nc(-c2ccc(F)cc2)c(-c2ccc(F)cc2)[nH]1)C(=O)Nc1ccc(F)cc1F [Example 114, N-[5-[4,5-bis(4-fluorophenyl)-1H-imidazol-2-ylthio]pentyl]-N'-(2,4-difluorophenyl)-N-heptylurea] | 5.46 | 7.40 |  | 
14 | CCCCCCCN(CCCCCSc1nc(-c2ccc(OC)cc2)c(-c2ccc(OC)cc2)[nH]1)C(=O)Nc1ccc(F)cc1F [Example 118, N-[5-[4,5-bis(4-methoxyphenyl)-1H-imidazol-2-ylthio]pentyl]-N'-(2,4-difluorophenyl)-N-heptylurea] | 7.00 | 6.77 |  | 
15 | CCCCCCCN(CCCCCSc1nc(-c2ccc(C)cc2)c(-c2ccc(C)cc2)[nH]1)C(=O)Nc1ccc(F)cc1F [Example 122, N-[5-[4,5-bis(4-methylphenyl)-1H-imidazol-2-ylthio]pentyl]-N'-(2,4-difluorophenyl)-N-heptylurea] | 6.52 | 7.10 |  | 
16 | CCCCCCCN(CCCCCSc1nc(-c2ccc(Cl)cc2)c(-c2ccc(Cl)cc2)[nH]1)C(=O)Nc1ccc(F)cc1F [Example 137] | 5.47 | 7.12 |  | 
17 | CCCCCCCN(CCCCCSc1ncc[nH]1)C(=O)Nc1ccc(F)cc1F [Example 186] | 5.21 | 5.55 |  | 
18 | CCCCCCCN(CCCCCSc1nc(C(C)C)c(C(C)C)[nH]1)C(=O)Nc1ccc(F)cc1F [Example 188, N-[5-[4,5-bis(1-methylethyl)-1H-imidazol-2-ylthio]pentyl]-N'-(2,4-difluorophenyl)-N-heptylurea] | 6.05 | 7.70 |  | 
19 | CCCCCCCN(CCCCCSc1nc(CCC)c(CCC)[nH]1)C(=O)Nc1ccc(F)cc1F [Example 193, N'-(2,4-difluorophenyl)-N-[5-(4,5-dipropyl-1H-imidazol-2-ylthio)pentyl]-N-heptylurea] | 5.57 | 7.22 |  | 
20 | CCCCCCCN(CCCCCSc1nc(-c2ccccn2)c(-c2ccccn2)[nH]1)C(=O)Nc1ccc(F)cc1F [Example 194] | 5.39 | 5.72 |  | 
21 | CCCCCCCN(CCCCCSc1nc(-c2cccc(OC)c2)c(-c2cccc(OC)c2)[nH]1)C(=O)Nc1ccc(F)cc1F [Example 195, N-[5-[4,5-bis(3-methoxyphenyl)-1H-imidazol-2-ylthio]pentyl]-N'-(2,4-difluorophenyl)-N-heptylurea] | 6.40 | 7.40 |  | 
22 | CCCCN(CCCCCCCCSc1nc(-c2ccccc2)c(-c2ccccc2)[nH]1)C(=O)NC(C)C [Example 262] |  | 6.70 |  | 
23 | CCCCCCCN(CCCCCSc1nc(-c2ccc(N(C)C)cc2)c(-c2ccc(N(C)C)cc2)[nH]1)C(=O)Oc1ccccc1 [Example 409, Phenyl [5-[4,5-bis(4-(dimethylamino)phenyl)-1H-imidazol-2-ylthio]pentyl]heptylcarbamate] |  |  |  | 6.92
